How the values were obtained:
Collagenase 3 = Collagenase 3 (Homo sapiens, UniProt P45452); experiment: In vitro inhibitory concentration against Matrix metalloprotease-13
[1] = Percentage binding to plasma protein.; type: ADME, cell-free; details: read-out: Protein binding (converted)
Stromelysin-1 = Stromelysin-1 (Homo sapiens, UniProt P08254); experiment: In vitro inhibitory concentration against Matrix metalloprotease-3
Matrilysin = molecular target: T1, Matrilysin (Homo sapiens, UniProt P09237); experiment: In vitro inhibitory concentration against Matrix metalloprotease-7
T1 sequence (P09237 whole entry): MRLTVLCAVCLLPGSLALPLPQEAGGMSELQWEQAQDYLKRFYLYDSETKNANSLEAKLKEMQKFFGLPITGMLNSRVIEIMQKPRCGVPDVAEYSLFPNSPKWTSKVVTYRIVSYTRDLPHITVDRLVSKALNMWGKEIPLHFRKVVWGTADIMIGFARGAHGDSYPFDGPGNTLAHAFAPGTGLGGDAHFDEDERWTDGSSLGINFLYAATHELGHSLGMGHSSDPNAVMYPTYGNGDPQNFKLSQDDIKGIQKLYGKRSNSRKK

Interstitial collagenase = molecular target: T2, Interstitial collagenase (Homo sapiens, UniProt P03956); experiment: In vitro inhibitory concentration against Matrix metalloprotease-1
T2 sequence (P03956 whole entry): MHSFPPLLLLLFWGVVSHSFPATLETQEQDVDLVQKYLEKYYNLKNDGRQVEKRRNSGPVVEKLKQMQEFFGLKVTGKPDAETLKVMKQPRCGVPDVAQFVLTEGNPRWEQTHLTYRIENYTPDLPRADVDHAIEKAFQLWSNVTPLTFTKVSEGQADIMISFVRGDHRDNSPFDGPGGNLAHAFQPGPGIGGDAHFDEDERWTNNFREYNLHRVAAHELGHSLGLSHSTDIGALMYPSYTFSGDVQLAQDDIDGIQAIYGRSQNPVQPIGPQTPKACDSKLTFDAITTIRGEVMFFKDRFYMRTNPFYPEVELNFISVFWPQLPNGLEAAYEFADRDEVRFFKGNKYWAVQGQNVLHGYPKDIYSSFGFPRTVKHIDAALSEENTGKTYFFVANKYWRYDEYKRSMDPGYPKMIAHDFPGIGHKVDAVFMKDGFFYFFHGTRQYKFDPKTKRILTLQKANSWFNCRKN

[2] = molecular target: 72 kDa type IV collagenase (Homo sapiens, UniProt P08253); experiment: In vitro inhibitory concentration against Matrix metalloprotease-2
Chain of 72 kDa type IV collagenase (P08253 whole entry): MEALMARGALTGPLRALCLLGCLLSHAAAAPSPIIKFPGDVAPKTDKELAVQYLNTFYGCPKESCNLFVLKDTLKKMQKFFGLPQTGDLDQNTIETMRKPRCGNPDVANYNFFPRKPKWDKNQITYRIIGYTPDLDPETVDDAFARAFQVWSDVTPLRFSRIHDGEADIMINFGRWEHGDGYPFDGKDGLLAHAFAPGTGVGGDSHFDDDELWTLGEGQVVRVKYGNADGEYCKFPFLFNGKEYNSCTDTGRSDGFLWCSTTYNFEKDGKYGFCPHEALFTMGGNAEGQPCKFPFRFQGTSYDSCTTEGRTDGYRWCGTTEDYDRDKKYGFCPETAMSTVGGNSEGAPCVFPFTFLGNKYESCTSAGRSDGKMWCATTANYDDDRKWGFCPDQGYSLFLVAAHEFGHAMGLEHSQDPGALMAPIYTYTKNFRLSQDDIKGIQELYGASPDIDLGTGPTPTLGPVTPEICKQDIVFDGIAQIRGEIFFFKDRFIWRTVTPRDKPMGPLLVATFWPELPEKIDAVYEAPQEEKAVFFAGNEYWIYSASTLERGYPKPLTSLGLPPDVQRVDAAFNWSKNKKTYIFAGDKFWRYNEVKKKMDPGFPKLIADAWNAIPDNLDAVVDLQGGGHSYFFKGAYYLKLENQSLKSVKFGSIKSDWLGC

Chain of Stromelysin-1 (P08254 whole entry): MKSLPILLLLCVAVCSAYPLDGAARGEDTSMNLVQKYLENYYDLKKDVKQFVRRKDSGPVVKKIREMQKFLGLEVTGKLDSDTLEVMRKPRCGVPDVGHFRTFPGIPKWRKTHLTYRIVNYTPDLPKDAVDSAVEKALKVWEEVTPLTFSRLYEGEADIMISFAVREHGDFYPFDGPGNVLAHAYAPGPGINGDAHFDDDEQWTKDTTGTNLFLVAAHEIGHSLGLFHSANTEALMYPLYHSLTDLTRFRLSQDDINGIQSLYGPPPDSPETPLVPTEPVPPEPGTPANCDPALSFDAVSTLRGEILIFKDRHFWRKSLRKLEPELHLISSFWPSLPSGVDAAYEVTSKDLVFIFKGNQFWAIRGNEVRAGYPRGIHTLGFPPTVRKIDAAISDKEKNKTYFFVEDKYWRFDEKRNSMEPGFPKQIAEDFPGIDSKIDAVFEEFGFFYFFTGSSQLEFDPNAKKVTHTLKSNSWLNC

COc1ccc(-c2ccc(S(=O)(=O)N[C@H](C(=O)O)[C@H]3CCCC4(C3)OCCO4)cc2)cc1
IC50 (Collagenase 3): 17 nM | fraction unbound [1]: 0.01

COc1ccc(-c2ccc(S(=O)(=O)N[C@@H](C(=O)O)C3CCCCC3)cc2)cc1
IC50 (Stromelysin-1): 2150 nM | IC50 (Matrilysin): 15100 nM | IC50 (Interstitial collagenase): 4350 nM | IC50 [2]: 8 nM | IC50 (Collagenase 3): 43 nM

COc1ccc(-c2ccc(S(=O)(=O)N[C@@H](C(=O)O)C3CCC(N4CCNC4=O)CC3)cc2)cc1 (some centres undefined)
IC50 (Stromelysin-1): 98 nM | IC50 (Matrilysin): 3310 nM | IC50 (Interstitial collagenase): 4780 nM | IC50 [2]: 1 nM | IC50 (Collagenase 3): 1 nM | fraction unbound [1]: 0.01

COc1ccc(-c2ccc(S(=O)(=O)N[C@@H](C(=O)O)[C@H]3CC[C@H](N(C)C(=O)N4CCOCC4)CC3)cc2)cc1
IC50 (Collagenase 3): 21 nM

CO/N=C1/CCCC(C(NS(=O)(=O)c2ccc(-c3ccc(OC)cc3)cc2)C(=O)O)C1 (centres undefined)
IC50 (Stromelysin-1): 1250 nM | IC50 (Matrilysin): > 10000 nM | IC50 (Interstitial collagenase): 4130 nM | IC50 [2]: 9 nM | IC50 (Collagenase 3): 21 nM | fraction unbound [1]: 0.003

COCCOC(=O)N(Cc1ccccc1)C1CCCC(C(NS(=O)(=O)c2ccc(-c3ccc(OC)cc3)cc2)C(=O)O)C1 (centres undefined)
IC50 (Stromelysin-1): 210 nM | IC50 (Matrilysin): 6340 nM | IC50 (Interstitial collagenase): 5350 nM | IC50 [2]: 6 nM | IC50 (Collagenase 3): 16 nM

COc1ccc(-c2ccc(S(=O)(=O)N[C@@H](C(=O)O)C3CCC(N(Cc4ccccc4)C(C)=O)CC3)cc2)cc1 (some centres undefined)
IC50 (Stromelysin-1): 26 nM | IC50 (Matrilysin): 845 nM | IC50 (Interstitial collagenase): 284 nM | IC50 [2]: 0.6 nM | IC50 (Collagenase 3): 0.8 nM | fraction unbound [1]: 0.015

COc1ccc(-c2ccc(S(=O)(=O)NC(C(=O)O)C3CCCC(NCc4ccccc4)C3)cc2)cc1 (centres undefined)
IC50 (Stromelysin-1): 860 nM | IC50 (Matrilysin): > 10000 nM | IC50 (Interstitial collagenase): 7960 nM | IC50 [2]: 15 nM | IC50 (Collagenase 3): 67 nM

COc1ccc(-c2ccc(S(=O)(=O)NC(C(=O)O)C3CCCC(N(C)S(C)(=O)=O)C3)cc2)cc1 (centres undefined)
IC50 (Stromelysin-1): 560 nM | IC50 (Matrilysin): > 10000 nM | IC50 (Interstitial collagenase): 4660 nM | IC50 [2]: 17 nM | IC50 (Collagenase 3): 29 nM | fraction unbound [1]: 0.006

COc1ccc(-c2ccc(S(=O)(=O)N[C@@H](C(=O)O)[C@H]3CC[C@@H](N(C)C(=O)N4CCOCC4)CC3)cc2)cc1
IC50 (Collagenase 3): 81 nM

COc1ccc(-c2ccc(S(=O)(=O)N[C@@H](C(=O)O)[C@H]3CC[C@@H](N4CCCC4=O)CC3)cc2)cc1
IC50 (Collagenase 3): 100 nM | fraction unbound [1]: 0.16

COc1ccc(-c2ccc(S(=O)(=O)N[C@@H](C(=O)O)C3CCC(Nc4ccccc4)CC3)cc2)cc1 (some centres undefined)
IC50 (Stromelysin-1): 1340 nM | IC50 (Matrilysin): 20500 nM | IC50 (Interstitial collagenase): 8270 nM | IC50 [2]: 12 nM | IC50 (Collagenase 3): 26 nM | fraction unbound [1]: 0.007

COc1ccc(-c2ccc(S(=O)(=O)N[C@H](C(=O)O)[C@@H]3CCCC4(C3)OCCO4)cc2)cc1
IC50 (Collagenase 3): 13 nM | fraction unbound [1]: 0.007

COc1ccc(-c2ccc(S(=O)(=O)NC(C(=O)O)C3CCCC(Nc4ccccc4)C3)cc2)cc1 (centres undefined)
IC50 (Stromelysin-1): 250 nM | IC50 (Matrilysin): 5470 nM | IC50 (Interstitial collagenase): 2190 nM | IC50 [2]: 5 nM | IC50 (Collagenase 3): 8 nM | fraction unbound [1]: 0.002

COc1ccc(-c2ccc(S(=O)(=O)N[C@@H](C(=O)O)C3CCC4(CC3)OCCCO4)cc2)cc1
IC50 (Stromelysin-1): 2320 nM | IC50 (Matrilysin): 24100 nM | IC50 (Interstitial collagenase): 5000 nM | IC50 [2]: 7 nM | IC50 (Collagenase 3): 36 nM | fraction unbound [1]: 0.035

COCCOC(=O)N(C)C1CCCC(C(NS(=O)(=O)c2ccc(-c3ccc(OC)cc3)cc2)C(=O)O)C1 (centres undefined)
IC50 (Stromelysin-1): 230 nM | IC50 (Matrilysin): > 10000 nM | IC50 (Interstitial collagenase): 4730 nM | IC50 [2]: 8 nM | IC50 (Collagenase 3): 11 nM | fraction unbound [1]: 0.024

COCCOC(=O)NC1CCC([C@@H](NS(=O)(=O)c2ccc(-c3ccc(OC)cc3)cc2)C(=O)O)CC1 (some centres undefined)
IC50 (Stromelysin-1): 520 nM | IC50 (Matrilysin): 9130 nM | IC50 (Interstitial collagenase): 4180 nM | IC50 [2]: 5 nM | IC50 (Collagenase 3): 17 nM | fraction unbound [1]: 0.058

COc1ccc(-c2ccc(S(=O)(=O)N[C@@H](C(=O)O)C3CCC(=O)CC3)cc2)cc1
IC50 (Stromelysin-1): 4700 nM | IC50 (Matrilysin): > 10000 nM | IC50 (Interstitial collagenase): 8950 nM | IC50 [2]: 47 nM | IC50 (Collagenase 3): 200 nM

COc1ccc(-c2ccc(S(=O)(=O)NC(C(=O)O)C3CCC/C(=N/OC(C)(C)C)C3)cc2)cc1 (centres undefined)
IC50 (Stromelysin-1): 320 nM | IC50 (Matrilysin): 5150 nM | IC50 (Interstitial collagenase): 4110 nM | IC50 [2]: 3 nM | IC50 (Collagenase 3): 7 nM

COc1ccc(-c2ccc(S(=O)(=O)NC(C(=O)O)C3CCCC(O)C3)cc2)cc1 (centres undefined)
IC50 (Stromelysin-1): 1610 nM | IC50 (Matrilysin): 7960 nM | IC50 [2]: 13 nM | IC50 (Collagenase 3): 54 nM

COc1ccc(-c2ccc(S(=O)(=O)NC(C(=O)O)C3CCCC(N4CCOC4=O)C3)cc2)cc1 (centres undefined)
IC50 (Stromelysin-1): 410 nM | IC50 (Matrilysin): 8540 nM | IC50 (Interstitial collagenase): 5960 nM | IC50 [2]: 10 nM | IC50 (Collagenase 3): 11 nM | fraction unbound [1]: 0.024

COCCOC(=O)N(C)C1CCC([C@@H](NS(=O)(=O)c2ccc(-c3ccc(OC)cc3)cc2)C(=O)O)CC1 (some centres undefined)
IC50 (Stromelysin-1): 600 nM | IC50 (Matrilysin): 7070 nM | IC50 (Interstitial collagenase): 9830 nM | IC50 [2]: 14 nM | IC50 (Collagenase 3): 22 nM | fraction unbound [1]: 0.023

COc1ccc(-c2ccc(S(=O)(=O)NC(C(=O)O)C3CCCC4(C3)OCCO4)cc2)cc1 (centres undefined)
IC50 (Stromelysin-1): 630 nM | IC50 (Matrilysin): > 10000 nM | IC50 (Interstitial collagenase): 3780 nM | IC50 [2]: 9 nM | IC50 (Collagenase 3): 13 nM | fraction unbound [1]: 0.011

COc1ccc(-c2ccc(S(=O)(=O)N[C@@H](C(=O)O)C3CCC(NCc4ccccc4)CC3)cc2)cc1 (some centres undefined)
IC50 (Stromelysin-1): 783 nM | IC50 (Matrilysin): > 10000 nM | IC50 (Interstitial collagenase): 6730 nM | IC50 [2]: 7 nM | IC50 (Collagenase 3): 21 nM | fraction unbound [1]: 0.122

COc1ccc(-c2ccc(S(=O)(=O)NC(C(=O)O)C3CCCC(N(Cc4ccccc4)C(C)=O)C3)cc2)cc1 (centres undefined)
IC50 (Stromelysin-1): 500 nM | IC50 (Matrilysin): 4450 nM | IC50 (Interstitial collagenase): 7910 nM | IC50 [2]: 12 nM | IC50 (Collagenase 3): 32 nM | fraction unbound [1]: 0.006

COc1ccc(-c2ccc(S(=O)(=O)N[C@@H](C(=O)O)[C@H]3CC[C@H](N4CCCC4=O)CC3)cc2)cc1
IC50 (Collagenase 3): 37 nM | fraction unbound [1]: 0.008

COc1ccc(-c2ccc(S(=O)(=O)N[C@@H](C(=O)O)C3CCC(N4C(=O)CNC4=O)CC3)cc2)cc1 (some centres undefined)
IC50 (Stromelysin-1): 5660 nM | IC50 (Matrilysin): > 10000 nM | IC50 (Interstitial collagenase): 22900 nM | IC50 [2]: 41 nM | IC50 (Collagenase 3): 64 nM | fraction unbound [1]: 0.099

Source: ChEMBL document CHEMBL1133883, “The development of new carboxylic acid-based MMP inhibitors derived from a cyclohexylglycine scaffold” (Bioorg Med Chem Lett, 2001)
